Where a name gives a salt, the structure may show the parent alone.
System: γ-secretase
Assay: Cellular γ-secretase assay (Aβ42 secretion)
Format: cell-based
Details: inhibition of Aβ42 secretion; human neuroglioma H4 cells overexpressing human APP; 22 hrs incubation; read-out: EC50 in vitro
Experimental: Cellular γ-Secretase Assay
Human neuroglioma H4 cells overexpressing human APP were plated at 30,000 cells/well/200 μl in 96-well plates in IMDM media containing 10% FCS, 0.2 mg/l Hygromycin B and incubated for 2 h at 37° C., 5% CO2 prior to adding test compounds.
Compounds for testing were dissolved in 100% Me2SO yielding in a 10 mM stock solution. Typically 12 μl of these solutions were further diluted in 1000 μl of IMDM media (w/o FCS,). Sub sequential 1:1 dilutions gave a ten point dose response curve. 100 μl of each dilution was added to the cells in 96-well plates. Appropriate controls using vehicle only and reference compound were applied to this assay. The final concentration of Me2SO was 0.4%.
After incubation for 22 hrs at 37° C., 5% CO2, 50 μl supernatant was transferred into round-bottom 96-well polypropylene plates for detection of Aβ42. 50 μl assay buffer (50 mM Tris/Cl, pH 7.4, 60 mM NaCl, 0.5% BSA, 1% TWEEN 20) was added to the wells followed by the addition of 100 μl of detection antibody (ruthenylated Aβ42-specific antibody BAP15 0.0625 μg/mL in assay buffer). 50 μl of a premix of capture antibody (biotinylated 6E10 antibody, 1 μg/mL) and Steptavidin-coated magnetic beads (Dynal M-280, 0.125 mg/mL) were preincubated for 1 hr at room temperature before adding the assay plates. Assay plates were incubated on a shaker for 3 hrs at room temperature and finally read in the Bioveris M8 Analyser according to the manufacturer's instructions (Bioveris).
EC50 values for inhibition of Aβ42 secretion were calculated by nonlinear regression fit analysis using XLfit 4.0 software (IDBS).

Compound | EC50
COc1cc(Nc2ncc3c(n2)C(c2ccccc2)CN(C(C)C)C3)ccc1-n1cnc(C)c1 (centres unmarked) [Example 80, (6-Isopropyl-8-phenyl-5,6,7,8-tetrahydro-pyrido[4,3-#d!]pyrimidin-2-yl)-[3-methoxy-4-(4-methyl-imidazol-1-yl)-phenyl]-amine] | 450 nM
COc1cc(Nc2ncc3c(n2)C(c2ccccc2)CNC3)ccc1-n1cnc(C)c1 (centres unmarked) [Example 41, [3-Methoxy-4-(4-methyl-imidazol-1-yl)-phenyl]-(8-phenyl-5,6,7,8-tetrahydro-pyrido[4,3-d]pyrimidin-2-yl)-amine hydrochloride] | 340 nM
COc1cc(Nc2nc3c(s2)CCCC3c2ccccc2)ccc1-c1sc(C)nc1C (centres unmarked) [Example 93, [4-(2,4-Dimethyl-thiazol-5-yl)-3-methoxy-phenyl]-(4-phenyl-4,5,6,7-tetrahydro-benzothiazol-2-yl)-amine] | 212 nM
COc1cc(Nc2nc3c(s2)CCCC3c2ccccc2)ccc1-c1cnn(C)c1 (centres unmarked) [Example 91, [3-Methoxy-4-(1-methyl-1H-pyrazol-4-yl)-phenyl]-(4-phenyl-4,5,6,7-tetrahydro-benzothiazol-2-yl)-amine] | 240 nM
COc1cc(Nc2ncc3c(n2)C(c2cc(F)c(F)c(F)c2)CCC3)ccc1-n1cnc(C)c1 (centres unmarked) [Example 69, [3-Methoxy-4-(4-methyl-imidazol-1-yl)-phenyl]-[8-(3,4,5-trifluoro-phenyl)-5,6,7,8-tetrahydro-quinazolin-2-yl]-amine] | 250 nM
COc1cc(Nc2nc3c(s2)CN(Cc2ccccc2)CC3c2ccc(Cl)c(F)c2)ccc1-n1cnc(C)c1 (centres unmarked) [Example 24, [5-Benzyl-7-(4-chloro-3-fluorophenyl)-4,5,6,7-tetrahydro-thiazolo[5,4-c]pyridin-2-yl]-[3-methoxy-4-(4-methyl-imidazol-1-yl)-phenyl]-amine] | 70 nM
Cc1cn(-c2ccc(Nc3ncc4c(n3)C(c3ccccc3)CCC4)cc2F)cn1 (centres unmarked) [Example 38, [3-Fluoro-4-(4-methyl-imidazol-1-yl)-phenyl]-(8-phenyl-5,6,7,8-tetrahydro-quinazolin-2-yl)-amine] | 130 nM
COc1cc(Nc2nc3c(s2)CCCC3c2ccccc2)ccc1-c1cnco1 (centres unmarked) [Example 1, (3-Methoxy-4-oxazol-5-yl-phenyl)-(4-phenyl-4,5,6,7-tetrahydro-benzothiazol-2-yl)-amine] | 300 nM
c1ccc(C2CCCc3sc(Nc4ccc(-c5ccncc5)cc4)nc32)cc1 (centres unmarked) [Example 94, (4-Phenyl-4,5,6,7-tetrahydro-benzothiazol-2-yl)-(4-pyridin-4-yl-phenyl)-amine] | 320 nM

Further lines, results first:

EC50 | Compound
70 nM | COc1cc(Nc2nc3c(s2)CCCC3c2ccccc2Cl)ccc1-n1cnc(C)c1 (centres unmarked) [Example 14, [4-(2-Chloro-phenyl)-4,5,6,7-tetrahydro-benzothiazol-2-yl]-[3-methoxy-4-(4-methyl-imidazol-1-yl)-phenyl]-amine]
130 nM | Cc1cn(-c2ccc(Nc3nc4c(s3)CCCC4c3ccccc3)cc2)cn1 (centres unmarked) [Example 18, [4-(4-Methyl-imidazol-1-yl)-phenyl]-(4-phenyl-4,5,6,7-tetrahydro-benzothiazol-2-yl)-amine]
120 nM | Cc1cn(-c2ccc(Nc3nc4c(s3)CCCC4c3ccccc3)cc2C#N)cn1 (centres unmarked) [Example 21, 2-(4-Methyl-imidazol-1-yl)-5-(4-phenyl-4,5,6,7-tetrahydro-benzothiazol-2-ylamino)-benzonitrile]
70 nM | COc1cc(Nc2nc3c(s2)CCCC3c2cc(Cl)cc(Cl)c2)ccc1-n1cnc(C)c1 (centres unmarked) [Example 27, [4-(3,5-Dichloro-phenyl)-4,5,6,7-tetrahydro-benzothiazol-2-yl]-[3-methoxy-4-(4-methyl-imidazol-1-yl)-phenyl]-amine]
100 nM | COc1cc(Nc2nc3c(s2)CCCC3c2ccc(OC(F)(F)F)cc2)ccc1-n1cnc(C)c1 (centres unmarked) [Example 10, [3-Methoxy-4-(4-methyl-imidazol-1-yl)-phenyl]-[4-(4-trifluoromethoxy-phenyl)-4,5,6,7-tetrahydro-benzothiazol-2-yl]-amine]
